From the NIST ThermoML archive (doi:10.1021/je0502896)
Values joined by “and” are separate entries in the source; they are usually repeats but may differ in a detail not shown here. Identical values can stand only once. Numbers after ± are expanded uncertainties.

conditions: 313.15 K; Liquid

| Structure (SMILES) | vapor or sublimation pressure |
| --- | --- |
| CC(C)OC(C)C [diisopropyl ether] | 37.1 ± 0.27 kPa and 37.14 ± 0.27 kPa and 37.12 ± 0.27 kPa |
| CCC(C)O (stereo not drawn) [butan-2-ol] | 6.062 ± 0.069 kPa [middle of 4 runs] |
| c1ccccc1 [benzene] | 24.39 ± 0.18 kPa and 24.38 ± 0.18 kPa and 24.4 ± 0.18 kPa |
